{"source": "paper PMC8599359", "about": "(Molecular Neurobiology, 2021)", "key": {"HIV-1 integrase": {"biological_target": "HIV-1 integrase", "settings": "read-out: IC50 as INSTI; cited from earlier work"}, "[1]": {"system": "pregnant C3H/HeJ mice, embryos", "test": "Embryo phenotype assessments", "assay_type": "in vivo, mouse", "description": "(§1) For all animal experiments, C3H/HeJ (10–12 weeks of age, male and female) were purchased from the Jackson Laboratory (Bar Harbor, ME), and were housed in microisolator cages containing autoclaved corncob bedding, and maintained on a 12‐h light‐dark cycle in climate‐controlled laboratory animal facilities approved by the University of Nebraska Medical Center Institutional Animal Care and Use Committee (IACUC). Mice were given free access to irradiated rodent feed (TD. 180,911, Envigo Teklad diet, Madison, WI) and sterile water. Animals were acclimated to the environment for approximately 7–14 days to determine that they were healthy based on observed behavior and weight gain. A female was placed with a male overnight for the purpose of timed matings. The following morning males were removed from the cages and positive vaginal plugs were identified. […] The time of conception was considered to be midnight on the evening of the mating. Treatment of plugged females was started at the morning of the day of plug detection (gestation day (GD) 0.5). […] Pregnant dams were randomly assigned to DTG or vehicle (control) group. Weight gain in dams was measured on GD 0.5, 5.5, 10.5, and 15.5. At GD 16.5, dams were humanely euthanized, and embryos and placenta were harvested. Embryos were evaluated for NTDs. At the time of harvest, the total number of implants (litter size, resorption rates, or viable embryos) was recorded for each pregnancy. Further, whole brain tissues from normal viable embryos were isolated and processed for examination of MMP expression and activity."}, "[2]": {"test": "Embryo phenotype assessments", "assay_type": "in vivo, mouse", "settings": "female, C3H/HeJ, mouse, in vivo, oral; GD 16.5, 50 mg/kg/day; read-out: Total viable embryos (%)", "description": "as §1"}, "MMP": {"system": "MMP", "test": "Broad-spectrum MMP activity in embryonic brain (fluorometric substrate)", "assay_type": "in vivo, mouse", "settings": "GD 16.5, dams 50 mg/kg/day oral GD 0.5-15.5, compared to controls", "method": "Broad-spectrum MMP activity was measured in whole brain tissue homogenates of normal, viable embryos (GD 16.5) using a quenched fluorogenic substrate, OMNIMMP® RED (BML-P277-0100, Enzo Life Sciences). Whole brain tissues were isolated from randomly selected embryos from different dams for both DTG and control groups. Tissues were homogenized in NP-40 lysis buffer using a Qiagen TissueLyzer II (Valencia, CA). Tissue lysates were centrifuged at 16,000 g at 4 °C for 20 min and supernatants were collected. Total protein levels in each sample were quantitated using Pierce™ BCA Protein Assay Kit (Thermo Fisher Scientific, Waltham, MA). The assays were performed in a 96-well, black, flat, microplate format. Fifty micrograms of protein for each sample was incubated with buffer (BML-KI175-0020, Enzo Life Sciences) at 37 °C for 60 min. Each sample was platted in duplicates. Later, reaction was started by adding fluorogenic substrate. Plate was read at similar instructions mentioned above for fluorometric substrate assay. Ilomastat (GM6001; broad-spectrum MMP inhibitor, ab120845, abcam) was added to randomly selected protein samples in additional wells at 20 µM concentration as an assay control."}, "C3H/HeJ mice pups": {"system": "C3H/HeJ mice pups", "test": "Pregnancy and postnatal outcomes after in utero exposure", "assay_type": "in vivo, mouse", "description": "For all animal experiments, C3H/HeJ (10–12 weeks of age, male and female) were purchased from the Jackson Laboratory (Bar Harbor, ME), and were housed in microisolator cages containing autoclaved corncob bedding, and maintained on a 12‐h light‐dark cycle in climate‐controlled laboratory animal facilities approved by the University of Nebraska Medical Center Institutional Animal Care and Use Committee (IACUC). Mice were given free access to irradiated rodent feed (TD. 180,911, Envigo Teklad diet, Madison, WI) and sterile water. Animals were acclimated to the environment for approximately 7–14 days to determine that they were healthy based on observed behavior and weight gain. A female was placed with a male overnight for the purpose of timed matings. The following morning males were removed from the cages and positive vaginal plugs were identified. […] The time of conception was considered to be midnight on the evening of the mating. Treatment of plugged females was started at the morning of the day of plug detection (gestation day (GD) 0.5).\nMice pups at this stage of development (PND 28) are equivalent to humans of 2 years of age. […] Pregnant dams were randomly assigned to DTG or vehicle group. […] Survival rate of pups was 100% between PND 4 and 21 in both groups. Further body weights of pups were measured during preweaning duration. […] Furthermore, between age PND 28 and 34, live animals were evaluated for biochemical changes in the brain by magnetic resonance imaging (MRI) (Fig. 5D–F). All the tests were performed around 6 days post weaning to avoid confounding effect of stress related to separation from mother. Microstructural and metabolite measurements were conducted in live pups using bioimaging methods, diffusion tensor imaging (DTI), and magnetic resonance spectroscopy (^1H MRS), respectively (Fig. 5D–F). First, pups were scanned using DTI to determine microstructural changes in six different brain regions, hippocampus (HI), cortex (CT), striatum (ST), thalamus (TH), hypothalamus (HY), and cerebellum (CE). […] As FA represents anisotropic movement of water molecules along the axons, reduction in FA values indicated axonal and/or myelin damage in developing brain of adolescent pups in the DTG-treated group. […] This allowed evaluation of sex as a biological variant (Supplementary Fig. 4). […] Further, the same pups were scanned using ^1H MRS to measure N-acetylaspartate (NAA), total choline (tCho), and total creatine (tCre) in hippocampus (HI) only (Fig. 5F). NAA is a highly concentrated metabolite in the CNS and is a neuron-specific metabolite that acts as a non-invasive ^1H MRS marker for neuronal integrity, health, and cell number. […] Similar to DTI, sex differences were evaluated in the ^1H MRS study (Supplementary Fig. 5)."}, "[3]": {"settings": "GD 16.5, 50 mg/kg/day, of 103 viable"}, "[4]": {"settings": "GD 16.5, 50 mg/kg/day, of 130 implants"}, "[5]": {"settings": "dams 50 mg/kg/day oral through entire gestation"}}, "data": [{"smiles": "C[C@@H]1CCO[C@H]2Cn3cc(C(=O)NCc4ccc(F)cc4F)c(=O)c(O)c3C(=O)N12", "note": "[DTG, Dolutegravir]", "values": [{"measurement": "IC50", "setting": "HIV-1 integrase", "result": 2.7, "unit": "nM"}, {"measurement": "maternal body weight gain during gestation", "setting": "[1]; 50 mg/kg/day oral GD 0.5-15.5, DTG vs control", "result": "No differences"}, {"measurement": "Abnormal/litter", "setting": "[1]; GD 16.5, 50 mg/kg/day", "result": 0.05}, {"measurement": "Implants/litter (mean litter size)", "setting": "[1]; GD 16.5, 50 mg/kg/day", "result": 7.6}, {"measurement": "Resorptions/litter", "setting": "[1]; GD 16.5, 50 mg/kg/day", "result": 1.5}, {"measurement": "Total resorptions (%)", "setting": "[1]; GD 16.5, 50 mg/kg/day", "result": 20.76, "unit": "%"}, {"measurement": "Viable embryos/litter", "setting": "[1]; GD 16.5, 50 mg/kg/day", "result": 6.05}, {"measurement": "Total implants", "setting": "[1]; GD 16.5, 50 mg/kg/day, 17 litters", "result": 130}, {"measurement": "Viable embryos abnormal, exencephaly (number)", "setting": "[1]; [3]", "result": 1}, {"measurement": "Viable embryos normal (number)", "setting": "[1]; [3]", "result": 102}, {"measurement": "Total resorptions (number)", "setting": "[1]; [4]", "result": 27}, {"measurement": "Total viable embryos (number)", "setting": "[1]; [4]", "result": 103}, {"measurement": "viability", "setting": "[2]", "result": 79.2, "unit": "%"}, {"measurement": "Broad-spectrum MMP activity in embryonic brain", "setting": "MMP", "result": "significantly inhibited"}, {"measurement": "Average body weight of pups", "setting": "C3H/HeJ mice pups; PND 12, in utero exposure", "result": "5.1 ± 0.4", "unit": "g"}, {"measurement": "Average body weight of pups", "setting": "C3H/HeJ mice pups; PND 21, in utero exposure", "result": "7.5 ± 0.4", "unit": "g"}, {"measurement": "No. of female pups delivered per litter", "setting": "C3H/HeJ mice pups; [5]", "result": 1.2}, {"measurement": "No. of male pups delivered per litter", "setting": "C3H/HeJ mice pups; [5]", "result": 2.2}, {"measurement": "No. of pups delivered per litter (average litter size)", "setting": "C3H/HeJ mice pups; [5]", "result": 3.5}, {"measurement": "male to female ratio per litter", "setting": "C3H/HeJ mice pups; [5]", "result": 2.0}, {"measurement": "% pup survival (PND 4 to PND 21)", "setting": "C3H/HeJ mice pups; in utero exposure", "result": 100, "unit": "%"}, {"measurement": "% pup survival (birth to PND 4)", "setting": "C3H/HeJ mice pups; in utero exposure", "result": 92.8, "unit": "%"}, {"measurement": "structural malformations or variations in newborn pups", "setting": "C3H/HeJ mice pups; in utero exposure", "result": "no structural malformations or variations"}]}]}
